The record followed here is US5707855A (priority 1996, dated 1998).

The test system of experiment [1] is P. AERUGINOSA H309. The experiment is classed as cell-based. To be noted: 10 μM NPN; fluorescence increase. The source says:
(§1) The second assay determined membrane permeability by the ability of 1-N-phenylnaphthylamine (NPN), a small fluorescent probe, to insert itself into the membrane. Normally, very little NPN can penetrate the outer membrane, but in the presence of a membrane permeabilizer it can insert into the hydrophobic membrane resulting in an increase in fluorescence (FIGS. 7 and 8). This N-phenylnaphthylamine uptake assay was previously described by Loh, et al., Antimicrobial Agents and Chemo., 26:546, 1984. Cells were prepared exactly the same as for the lysozyme lysis assay. 1-N-phenylnaphthylamine (NPN) was dissolved in acetone at a concentration of 500 μM. NPN fluorescence was measured in a Perkin-Elmer 650-10S fluorescent spectrophotometer using excitation and emission wavelengths set to 350 nm and 420 nm respectively, with slit widths of 5 nm. The assay was standardized by adding 20 μl of NPN (final concentration of 10 μM) and 10 μl of 0.64 mg/ml of polymyxin B (final concentration of 6.4 μg/ml) into 1 ml of cells, and adjusting the resulting fluorescence to read 90% deflection (90 arbitrary units). Various compounds were tested by adding 10 μl of different concentrations to a cuvette containing 1 ml of cells and 10 μM NPN. Permeabilizing activity was designated as the total fluorescence minus the fluorescence due to NPN alone. Following the fluorescence measurement, the OD600 of the cells was taken to ensure no significant cell lysis had occurred.

Experiment [2] relates to E. cloacae 218R1. The experiment is classed as cell-based. The settings on record: 10 μM NPN; fluorescence increase.
Source text: as §1

Experiment [3] concerns P. AERUGINOSA H309. Kind of experiment: Lysozyme lysis assay (outer membrane permeabilization). It counts as cell-based. The settings on record: 50 μg/ml lysozyme; decrease in OD600. As for the experimental part: (§2) Membrane permeabilization by polycationic compounds was measured in two different assays. The first assay measured membrane disruption by the ability of lysozyme to reach the periplasm and cause cell lysis. […] The uptake of lysozyme into whole cells due to membrane permeabilization by various compounds was previously described in Hancock, et al., Antimicrobial Agents and Chemo., 19:777, 1981. Overnight cultures of P. aeruginosa H309 or E. cloacae 218R1 grown in LB-S were diluted 1 in 50 in fresh medium and grown to an OD600 =0.5-0.6. The cells were harvested in a Silencer H-103N clinical centrifuge at 1800 g for 10 min, washed once with one volume of assay buffer (5 mM HEPES pH 7.2, 5 mM KCN), and resuspended in the same buffer to an OD600 of 0.5. Assays consisted of 600 μl of cells with 50 μg/ml of chicken egg white lysozyme and varying concentrations of cationic compounds. Cell lysis was measured as a decrease in the OD600 in a Perkin-Elmer dual beam spectrophotometer. Parallel experiments performed without lysozyme enabled the measurement of the lytic activity of the compounds themselves. To test whether or not permeability to lysozyme could be inhibited by divalent cations, various concentrations of MgCl2 were added to the assay after the addition of lysozyme and before the addition of the test compound.

The test system of experiment [4] is E. cloacae 218R1. Described as above. The experiment is classed as cell-based. To be noted: 50 μg/ml lysozyme; decrease in OD600. As for the experimental part: as §2
Experiment [5] is described as follows: MICs of common antibiotics in the presence of sub-MIC levels of cationic peptides. It counts as cell-based. The settings on record: peptide at 1/2 MIC levels. The procedure: (§3) The minimum inhibitory concentrations of (MIC) of CEME, CEMA and melittin were determined for a number of different bacteria (Table 2). Briefly, cells were grown overnight at 37° C. in LB-S (Luria broth without any salt supplement) and diluted one in 10,000 in the same medium to give concentrations of about 10^4 to 10^5 CFU/ml. The broth dilutions were set up in a 96 well microtiter plate by putting 200 μl of LB-S containing the initial concentration of antibiotic or compound in column 1 and 100 μl of the same medium in columns 2-12. The compounds were diluted by taking 100 μl of broth from column 1 and mixing it with column 2, resulting in a one in two dilution. This was continued to column 10. Finally, 10 μl of bacteria were pipetted into columns 1-11, and the plates incubated overnight at 37° C. The next day the plates were scored for growth in the wells, and the MIC determined.
The ability of the cationic peptides to work synergystically was examined by determining the MIC values for some commonly used antibiotics in the presence of sub-MIC levels of cationic peptides (Table 4). […] This may be due to the high membrane permeabilizing activity of CEMA (see below). However, the peptides did lower the MIC of polymyxin B, possibly due to the fact that they are all taken up by the same pathway and are therefore aiding each other's uptake. Of interest is the influence that melittin has on the MIC of polymyxin B, given the […] membrane permeabilizing activity of melittin.

A further experiment concerns S. typhimurium. It counts as cell-based. To be noted: C590 versus C587. As for the experimental part: as §3
A further experiment has as its system E. cloacae. The experiment is classed as cell-based. The settings on record: strain 218S, Parent of 218R1. As for the experimental part:
as §3

The subject of another experiment is E. coli. The experiment is classed as cell-based. To be noted: strain UB1005, Parent of DC2. As for the experimental part: as §3
The test system of another experiment is P. aeruginosa. The experiment is classed as cell-based. To be noted: against many bacterial species. As for the experimental part:
as §3

The next experiment relates to P. aeruginosa H103 LPS. Description: Dansyl polymyxin (DPx) displacement from purified LPS. The experiment is classed as binding. To be noted: on a μM basis. The procedure: In this assay, DPx was incubated with LPS to saturate the binding sites and then, while polycationic compounds are titrated into the reaction, displacement of the DPx was monitored by the decrease in fluorescence (FIG. 9).
The method of Moore, et al., (Antimicrobial Agents and Chemo., 29:496, 1987), was used to test how much DPx was needed to saturate the binding sties on LPS. Briefly, 5 μl samples of 100 μM DPx were titrated sequentially into 1 ml of 3 μg/ml of LPS until a maximum fluorescence was reached. The fluorescence was measured in a Perkin-Elmer 650-10S fluorescence spectrophotometer with an excitation wavelength of 340 nm and an emission wavelength of 485 nm using slit widths of 5 nm. […] For the binding inhibition assays (Moore, et al., Antimicrobial Agents and Chemo., 29:496, 1987), 2.5 μM DPx was added to 3 μg/ml of H103 LPS in 5 mM HEPES pH 7.2. The test compounds were added 5 μl at a time and the decrease in fluorescence due to displacement of the DPx from the LPS was recorded.

Values after ≈ are worked out from the molar mass of the structure shown.

As for `CC[C@H](C)[C@H](NC(=O)CNC(=O)[C@@H](NC(=O)[C@H](CCCCN)NC(=O)[C@H](CCCCN)NC(=O)[C@H](Cc1ccccc1)NC(=O)[C@H](CC(C)C)NC(=O)[C@H](CCCCN)NC(=O)[C@H](Cc1c[nH]c2ccccc12)NC(=O)[C@@H](N)CCCCN)[C@@H](C)CC)C(=O)NCC(=O)N[C@@H](C)C(=O)N[C@H](C(=O)N[C@@H](CC(C)C)C(=O)N[C@@H](CCCCN)C(=O)N[C@H](C(=O)N[C@@H](CC(C)C)C(=O)N[C@H](C(=O)N[C@H](C(=O)NCC(=O)N[C@@H](CC(C)C)C(=O)N1CCC[C@H]1C(=O)N[C@@H](C)C(=O)N[C@@H](CC(C)C)C(=O)N[C@@H](CCCCN)C(=O)N[C@@H](CC(C)C)C(=O)N[C@H](C(=O)N[C@@H](CCCCN)C(=O)O)[C@@H](C)O)[C@@H](C)O)[C@@H](C)O)C(C)C)C(C)C` [CEMA], the “Activity in opening up the membrane to NPN” value in the experiment on P. AERUGINOSA H309 [1] and with E. cloacae 218R1 [2] was “equally active” each time. Besides, the “Permeabilization of the outer membrane to lysozyme, compared with polymyxin B” value with P. AERUGINOSA H309 [3] and in the experiment on E. cloacae 218R1 [4] was “stronger permeabilizer for lysozyme than polymyxin B” in each case. Further, the “Reduction of the MICs of ceftazidime, imipenem and tetracycline” value in [5] amounted to 2 fold. In addition, the “Sensitivity of defensin sensitive strain C590 relative to parent (MIC change)” value in the experiment with S. typhimurium is listed as “four-fold more sensitive”. Besides, the minimal inhibitory concentration (MIC) with E. cloacae and in the experiment with E. coli was 2.8 µg/mL (≈ 0.913 µM) throughout. For the same compound, in the experiment with P. aeruginosa, the “Antibiotic activity compared with CEME” value is on record as “two-fold improved antibiotic activity”. Also, in the experiment on P. aeruginosa H103 LPS, the “Affinity for LPS compared with polymyxin B” value is recorded as “higher affinity for LPS than polymyxin B”.
